Source: ChEMBL document CHEMBL1153334, “New cyclic peptide proteasome inhibitors” (Bioorg Med Chem Lett, 2009)

Legend:
[1] = Metabolic stability in human plasma assessed as half life after 360 mins; type: ADME, cell-free
cells [2] = test: cells
Description: Inhibition of caspase-like activity of 20S proteasome beta 1 subunit by cell based assay

cells [3] = test: cells; remark: listed apart in the source
Description: Inhibition of trypsin-like activity of 20S proteasome beta 2 subunit by cell based assay

Structure (SMILES)	half-life [1]	IC50 (cells [2])	IC50 (cells [3])
COC(=O)/C=C/[C@H](CC(C)C)NC(=O)CC[C@@H]1NC(=O)[C@H](CC(C)C)NC(=O)[C@H](CC(C)C)C(=O)NC(=O)[C@H](C(C)C)NC1=O	> 6 h	273 nM	–
COC(=O)/C=C/[C@H](CC(C)C)NC(=O)CC[C@H](NC(=O)[C@H](CC(C)C)NC(=O)[C@H](CC(C)C)C(=O)NC(=O)[C@@H](N)CO)C(N)=O	1.43 h	–	–
COC(=O)/C=C/[C@H](CC(C)C)NC(=O)CC[C@@H]1NC(=O)[C@H](CC(C)C)NC(=O)[C@H](CC(C)C)C(=O)NC(=O)CNC1=O	> 6 h	221 nM	5830 nM
COC(=O)/C=C/[C@H](CC(C)C)NC(=O)CC[C@@H]1NC(=O)[C@H](CC(C)C)NC(=O)[C@H](CC(C)C)C(=O)NC(=O)[C@H](CO)NC1=O	> 6 h	91 nM	6940 nM

The next lines start with the values.

half-life [1]	IC50 (cells [2])	IC50 (cells [3])	Structure (SMILES)
0.808 h	–	–	COC(=O)/C=C/[C@H](CC(C)C)NC(=O)CC[C@H](NC(=O)[C@H](CC(C)C)NC(=O)[C@H](CC(C)C)C(=O)NC(=O)CN)C(N)=O
> 6 h	123 nM	–	COC(=O)/C=C/[C@H](CC(C)C)NC(=O)CC[C@@H]1NC(=O)[C@H](CC(C)C)NC(=O)[C@H](CC(C)C)C(=O)NC(=O)[C@H](C)NC1=O
1.96 h	–	–	COC(=O)/C=C/[C@H](CC(C)C)NC(=O)CC[C@H](NC(=O)[C@H](CC(C)C)NC(=O)[C@H](CC(C)C)C(=O)NC(=O)[C@@H](N)C(C)C)C(N)=O
1.22 h	–	–	COC(=O)/C=C/[C@H](CC(C)C)NC(=O)CC[C@H](NC(=O)[C@H](CC(C)C)NC(=O)[C@H](CC(C)C)C(=O)NC(=O)[C@H](C)N)C(N)=O
